Measured values: patent publication US12446577B2 (priority 2018, dated 2025)
Like-named read-outs stand apart in the source and are kept apart here.

What was measured:
Colletotrichum coccodes = assay: Mycelium growth inhibition on PDA (Example 2); format: cell-based; conditions: 6 days at 25° C; for Average mycellium diameter: n = 4; for % inhibition of the pathogens: vs untreated PDA
Procedure: (§1) Strains used for this trial (Table 3) were kept and refreshed on Potato Dextrose Agar (PDA) at 25° C.
(§2) In a first setup, a test composition was directly added to PDA (about 20 mL/petri dish) (Table 4). Plugs of agar (diameter 8 mm) from two week-old cultures were placed at the center of the PDA plates. Each test was performed in 4 repetitions. The petri dishes were then incubated at 25° C. After 6 days of incubation, the diameter of the colonies was measured in 2 perpendicular directions. The percentage of inhibition was calculated for each tested composition and compared to the untreated PDA.

Alternaria solani = assay: Mycelium growth inhibition on PDA (Example 2); format: cell-based; conditions: 6 days at 25° C; for Average mycellium diameter: n = 4; for % inhibition of the pathogens: vs untreated PDA
Procedure: as §1, §2

[1] = test system: Botrytis cinerea (grapevine); assay: Mycelium growth inhibition on PDA (Example 2); format: cell-based; conditions: 6 days at 25° C; for Average mycellium diameter: n = 4; for % inhibition of the pathogens: vs untreated PDA
Procedure: as §1, §2

[2] = test system: Botrytis cinerea (lettuce); assay: Mycelium growth inhibition on PDA (Example 2); format: cell-based; conditions: 6 days at 25° C; for Average mycellium diameter: n = 4; for % inhibition of the pathogens: vs untreated PDA
Procedure: as §1, §2

Pythium ultimum = assay: Mycelium growth inhibition on PDA (Example 7); format: cell-based; conditions: 3 days at 25° C; for Average mycelium diameter: n = 4
Procedure: (§3) Strains used for this trial were kept and refreshed on Potato Dextrose Agar (PDA) at 25° C.
(§4) To begin, a quantity of test product was directly added in a certain volume of PDA (about 20 mL/petri dish) (Table 11). Plugs of agar (diameter 10 mm) from one week-old cultures were placed at the centre of the PDA plates. Each object was performed in 4 repetitions. The petri dishes were then incubated at 25° C. in the dark. After 3 and 6 days of incubation, the diameter of the colonies was measured in 2 perpendicular directions. The percentage of inhibition was calculated for each product/concentration compare to the untreated.

Sclerotinia minor = assay: Mycelium growth inhibition on PDA (Example 7); format: cell-based; conditions: 3 days at 25° C; for Average mycelium diameter: n = 4
Procedure: as §3, §4

Sclerotinia sclerotiorum = assay: Mycelium growth inhibition on PDA (Example 7); format: cell-based; conditions: 3 days at 25° C; for Average mycelium diameter: n = 4
Procedure: as §3, §4

Rhizoctonia solani = assay: Mycelium growth inhibition on PDA (Example 7); format: cell-based; conditions: 3 days at 25° C; for Average mycelium diameter: n = 4
Procedure: as §3, §4

Phytophthora infestans = format: in vivo; conditions: 1 min dip, 7 days of incubation; for Lesion Size: n = 5
apple trees = assay: Phytotoxicity on apple trees in the powdery mildew trial; format: in vivo; conditions: repeated applications during the season, 10 mL/L
Description: (§5) During the third week of March 2017, 60 branched apple trees (rootstock M9—clone Golden B) of 2 years were transplanted from a local nursery into pots (pot: 12 Liters). The 60 potted apple plants were maintained outside the greenhouse in S. Michele all′Adige (Trento). Plants were maintained divided in 3 blocks. Each block was composed of 20 plants arranged in two rows (See scheme 1). Plants were watered through a drip irrigation system once or twice a week according to the weather conditions. The insecticidal treatments were applied uniformly on all the experimental plants. Two of the three objects were treated against powdery mildew in accordance with the foreseen spray scheme: Chemical treatments, TMAP alone, untreated. One object was maintained Untreated as reference. For the “Chemical” object, different active ingredients were used alone or in combination (Table 13).
The treatments were performed at the same time, and timings of spray were done weekly and according to the weather conditions. The applications were done with a pressurized hand sprayer (water volume 1.5-2 L per object).

powdery mildew on apple = assay: Trial on potted apple trees against powdery mildew; format: in vivo; conditions: day 85; weekly sprays (TMAP 10 mL/L; Chemical per Table 13/14); 1000 leaves per object
Description: as §5
The treatments were performed at the same time, and timings of spray were done weekly and according to the weather conditions. […]
Powdery mildew: 5 shoots per each plant were randomly selected and labeled for the assessments. The assessment on powdery mildew was done on day 85, ten leaves of each shoot were singularly evaluated for the presence of symptoms, 5 marked shoots per plant were assessed. […]
Data of powdery mildew incidence were analyzed using the Statistica 13.1 software.

Bintje leaflets = assay: Phytotoxicity symptoms on dipped potato leaflets (Example 4); format: in vivo; conditions: highest concentration (10 L/ha), 7 days
Fusarium graminearum = format: cell-based; conditions: 6 days at 25° C; for Average mycellium diameter: n = 4; for % inhibition of the pathogens: vs untreated PDA
lettuce plants = assay: Phytotoxicity on lettuce plants after spraying; format: in vivo; conditions: 2.5% pelargonic acid, sprayed until run-off, n = 6, scale 0 to 100%
Procedure: A neutralization reaction was made with pelargonic acid (>97%) and choline hydroxide (45%) based on the titration curve (FIG. 1). Based on the titration curve, a stock solution of choline pelargonate (29.1% PLA (>97%) and 40.4% Choline hydroxide (45%)) was made by mixing 14.55 mL pelargonic acid with 15.25 mL distilled water and afterwards the addition of 20.2 mL choline hydroxide. The choline pelargonate stock solution was diluted in distilled water to obtain a diluted choline pelargonate composition comprising about 2.5% pelargonic acid. The total concentration of choline pelargonate in the water spray solution was 37.08 g a.i./L (a.i.=active ingredient).
The next step was to assess the phytotoxicity of a composition comprising choline pelargonate on lettuce plants. As a control, plants were treated with water. The plants were also treated with a diluted pelargonic acid composition, including a diluted pelargonic acid solution based on the commercial product Beloukha (Belchim Crop Protection).
Lettuce plants were sprayed with a small hand sprayer until run-off with the respective compositions and incubated at 20° C. Each composition was tested with a setup consisting out of six plants. A visual assessment was made on lettuce plants after spraying. The effect of phytotoxicity (necrosis or discolouration) was scored by a scale from 0 to 100%, with 0% no phytotoxicity and 100% fully phytotoxicity on plants.

[3] = test system: Powdery Mildew (Podosphaera xanthii); assay: Single leaf test powdery mildew on zucchini; conditions: zucchini leaf N sprayed with 0.8% in water; 8 days after the treatment
Procedure: Single leaf test Powdery Mildew (Podosphaera xanthii). A zucchini plant was selected with a powdery mildew infection on old leaves. In addition to a leaf showing the first signs of infection of powdery mildew (leaf N−1), two leaves without infection (leaf N and N+1) were selected.
Leaves (N+1) and (N−1) were left untreated. The fungal infection was assessed 8 days after the treatment.

[4] = dose rate 1 L·kg/ha (0.2 mL in 100 mL water)
[5] = dose rate 10 L·kg/ha (2 mL in 100 mL water)

Q: For `CCCCCCCCC(=O)[O-].C[N+](C)(C)CCO` [Choline pelargonate, choline pelargonate], which Average mycellium diameter (Colletotrichum coccodes; 0.36% AI in PDA) is on record?
A: The Average mycellium diameter was 0.0 ± 0.0 mm.

Q: And the “% inhibition of the pathogens” value (Colletotrichum coccodes; 0.36% AI in PDA)?
A: Its value is 100%.

Q: And the Average mycellium diameter (Colletotrichum coccodes; 3.6% AI in PDA)?
A: The Average mycellium diameter was 0.0 ± 0.0 mm.

Q: What about the “% inhibition of the pathogens” value (Colletotrichum coccodes; 3.6% AI in PDA) of the same compound?
A: Its value is 100%.

Q: What about the Average mycellium diameter (Alternaria solani; 0.36% AI in PDA) of the same compound?
A: Its Average mycellium diameter is 0.0 ± 0.0 mm.

Q: What about the “% inhibition of the pathogens” value (Alternaria solani; 0.36% AI in PDA) of the same compound?
A: Its value is 100%.

Q: And the Average mycellium diameter (Alternaria solani; 3.6% AI in PDA)?
A: Its Average mycellium diameter is 0.0 ± 0.0 mm.

Q: What about the “% inhibition of the pathogens” value (Alternaria solani; 3.6% AI in PDA) of the same compound?
A: Its value is 100%.

Q: And the Average mycellium diameter ([1]; 0.36% AI in PDA)?
A: The Average mycellium diameter was 0.0 ± 0.0 mm.

Q: What about the “% inhibition of the pathogens” value ([1]; 0.36% AI in PDA) of the same compound?
A: The value was 100%.

Q: What about the Average mycellium diameter ([1]; 3.6% AI in PDA) of the same compound?
A: Its Average mycellium diameter is 0.0 ± 0.0 mm.

Q: What about the “% inhibition of the pathogens” value ([1]; 3.6% AI in PDA) of the same compound?
A: Its value is 100%.

Q: What about the Average mycellium diameter ([2]; 0.36% AI in PDA) of the same compound?
A: Its Average mycellium diameter is 0.0 ± 0.0 mm.

Q: And the “% inhibition of the pathogens” value ([2]; 0.36% AI in PDA)?
A: Its value is 100%.

Q: And the Average mycellium diameter ([2]; 3.6% AI in PDA)?
A: Its Average mycellium diameter is 0.0 ± 0.0 mm.

Q: And the “% inhibition of the pathogens” value ([2]; 3.6% AI in PDA)?
A: Its value is 100%.

Q: And the “% efficacy compared to control (Abbott)” value (Pythium ultimum; 0.042% a.i. in PDA)?
A: Its value is 100%.

Q: What about the Average mycelium diameter (Pythium ultimum; 0.042% a.i. in PDA) of the same compound?
A: Its Average mycelium diameter is 0.0 ± 0.0 mm.

Q: What about the “% efficacy compared to control (Abbott)” value (Pythium ultimum; 0.42% a.i. in PDA) of the same compound?
A: Its value is 100%.

Q: What about the Average mycelium diameter (Pythium ultimum; 0.42% a.i. in PDA) of the same compound?
A: Its Average mycelium diameter is 0.0 ± 0.0 mm.

Q: What about the “% efficacy compared to control (Abbott)” value (Sclerotinia minor; 0.042% a.i. in PDA) of the same compound?
A: The value was 96%.

Q: And the Average mycelium diameter (Sclerotinia minor; 0.042% a.i. in PDA)?
A: The Average mycelium diameter was 2.8 ± 4.3 mm.

Q: What about the “% efficacy compared to control (Abbott)” value (Sclerotinia minor; 0.42% a.i. in PDA) of the same compound?
A: The value was 99%.

Q: And the Average mycelium diameter (Sclerotinia minor; 0.42% a.i. in PDA)?
A: The Average mycelium diameter was 0.8 ± 0.9 mm.

Q: What about the “% efficacy compared to control (Abbott)” value (Sclerotinia sclerotiorum; 0.042% a.i. in PDA) of the same compound?
A: Its value is 98%.

Q: What about the Average mycelium diameter (Sclerotinia sclerotiorum; 0.042% a.i. in PDA) of the same compound?
A: The Average mycelium diameter was 1.4 ± 0.5 mm.

Q: What about the “% efficacy compared to control (Abbott)” value (Sclerotinia sclerotiorum; 0.42% a.i. in PDA) of the same compound?
A: The value was 100%.

Q: And the Average mycelium diameter (Sclerotinia sclerotiorum; 0.42% a.i. in PDA)?
A: Its Average mycelium diameter is 0.0 ± 0.0 mm.

Q: And the “% efficacy compared to control (Abbott)” value (Rhizoctonia solani; 0.042% a.i. in PDA)?
A: The value was 67%.

Q: And the Average mycelium diameter (Rhizoctonia solani; 0.042% a.i. in PDA)?
A: The Average mycelium diameter was 17.1 ± 1.9 mm.

Q: And the “% efficacy compared to control (Abbott)” value (Rhizoctonia solani; 0.42% a.i. in PDA)?
A: Its value is 100%.

Q: What about the Average mycelium diameter (Rhizoctonia solani; 0.42% a.i. in PDA) of the same compound?
A: Its Average mycelium diameter is 0.3 ± 0.5 mm.

Q: What about the “Efficacy (%) (Abbott)” value (Phytophthora infestans; [4]) of the same compound?
A: Its value is 84.9%.

Q: And the “Lesion Size” value (Phytophthora infestans; [4])?
A: The value was 0.41 ± 0.57 cm^2.

Q: What about the “Efficacy (%) (Abbott)” value (Phytophthora infestans; [5]) of the same compound?
A: The value was 100.0%.

Q: What about the “Lesion Size” value (Phytophthora infestans; [5]) of the same compound?
A: The value was 0.00 ± 0.00 cm^2.

Q: What about the “symptoms of phytotoxicity on the plants” value (apple trees) of the same compound?
A: The value was “no symptoms of phytotoxicity”.

Q: What about the “disease incidence (percentage of infected leaves)” value (powdery mildew on apple) of the same compound?
A: Its value is 25.5%.

Q: And the “phytotoxicity symptoms on leaflets” value (Bintje leaflets)?
A: The value was “some minor phytoxicity symptoms on the edge and stem”.

Q: And the Average mycellium diameter (Fusarium graminearum; 0.36% AI in PDA)?
A: The Average mycellium diameter was 17.6 ± 21.1 mm.

Q: And the “% inhibition of the pathogens” value (Fusarium graminearum; 0.36% AI in PDA)?
A: The value was 77%.

Q: And the Average mycellium diameter (Fusarium graminearum; 3.6% AI in PDA)?
A: The Average mycellium diameter was 0.0 ± 0.0 mm.

Q: What about the “% inhibition of the pathogens” value (Fusarium graminearum; 3.6% AI in PDA) of the same compound?
A: The value was 100%.

Q: What about the “Phytotoxicity (%) evaluation on lettuce plants” value (“Phytotoxicity (%) evaluation” for short) (lettuce plants; 0 DAA) of the same compound?
A: The value was 0.00%.

Q: What about the “Phytotoxicity (%) evaluation” value (lettuce plants; 1 DAA) of the same compound?
A: Its value is 1.33%.

Q: And the “Phytotoxicity (%) evaluation” value (lettuce plants; 2 DAA)?
A: The value was 1.67%.

Q: And the “Phytotoxicity (%) evaluation” value (lettuce plants; 7 DAA)?
A: Its value is 3.50%.

Q: And the “surface of leaf covered by powdery mildew” value [3]?
A: The value was “less than 5%”.
